The target of experiment [1] is human recombinant histamine H1 receptor (Homo sapiens, UniProt P35367). Nature of the experiment: Histamine H1 radioligand binding ([3H]Pyrilamine). As to conditions: compound at 0.1 μM; 1.2 nM [3H]Pyrilamine; read-out: Binding data (Percentage inhibition) Histamine H1 (0.1 μM). On the procedure: To evaluate in radioligand binding assays the activity of compounds of the invention, human recombinant histamine H1 receptor expressed in Chinese hamster ovary (CHO) cells (De Backer, M. et al, Biochem. Biophys. Res. Comm. 197(3):1601, 1993) in a modified Tris-HCl buffer (50 mM Tris-HCl, pH 7.4, 2 mM MgCl2, 100 mM NaCl, 250 mM Sucrose) was used. Compounds of the invention were incubated with 1.2 nM [^3H]Pyrilamine for 180 min at 25° C. Non-specific binding was estimated in the presence of 1 μM Pyrilamine. Receptor proteins were filtered and washed, the filters were then counted to determine [^3H]Pyrilamine specifically bound. Compounds were screened at 1 μM or lower, using 1% DMSO as vehicle. Biochemical assay results are presented as the percent inhibition of specific binding in Table 2.

For experiment [2], the target named is T1, human recombinant adrenergic α1D receptor (Homo sapiens, UniProt P25100).
T1 construct: expressed in transfected cells; host or cells: human embryonic kidney (HEK-293) cells
T1 sequence (P25100 1-572): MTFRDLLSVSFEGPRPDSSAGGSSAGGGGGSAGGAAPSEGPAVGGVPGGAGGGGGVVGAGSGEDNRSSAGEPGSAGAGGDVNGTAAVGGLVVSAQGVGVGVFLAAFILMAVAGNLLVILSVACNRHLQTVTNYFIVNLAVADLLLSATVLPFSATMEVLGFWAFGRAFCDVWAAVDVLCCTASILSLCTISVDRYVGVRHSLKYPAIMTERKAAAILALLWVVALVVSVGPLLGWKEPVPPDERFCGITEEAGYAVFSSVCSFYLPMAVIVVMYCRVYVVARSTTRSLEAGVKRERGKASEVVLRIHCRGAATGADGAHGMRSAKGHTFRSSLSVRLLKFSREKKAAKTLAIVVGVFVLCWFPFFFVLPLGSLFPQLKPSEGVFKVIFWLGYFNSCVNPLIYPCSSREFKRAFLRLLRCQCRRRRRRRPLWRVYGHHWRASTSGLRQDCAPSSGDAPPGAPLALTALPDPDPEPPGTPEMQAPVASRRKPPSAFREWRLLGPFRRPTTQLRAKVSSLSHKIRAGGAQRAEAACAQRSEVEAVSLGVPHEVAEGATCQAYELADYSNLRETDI
The experiment can be described thus: Adrenergic α1D radioligand binding ([3H]Prazosin). To be noted: compound at 0.1 μM; read-out: Percentage inhibition of ligand binding, Adrenergic (0.1 μM) a1D. On the procedure:
To evaluate in radioligand binding assays the activity of compounds of the invention, human recombinant adrenergic α1D receptor expressed in human embryonic kidney (HEK-293) cells (Kenny, B. et al, Br. J. Pharmacol. 115(6):981, 1995) in a 50 mM Tris-HCl buffer, pH 7.4, was used. Compounds of invention were incubated with 0.6 nM [^3H]Prazosin for 60 min at 25° C. Non-specific binding was estimated in the presence of 10 μM phentolamine. Receptor proteins were filtered and washed, the filters were then counted to determine [^3H]Prazosin specifically bound. Compounds were screened at 1 μM or lower, using 1% DMSO as vehicle. Biochemical assay results are presented as the percent inhibition of specific binding in Table 3.

Experiment [3] has as its target T2, human recombinant adrenergic α2C receptor (Homo sapiens, UniProt P18825).
T2 construct: expressed in transfected cells; host or cells: insect Sf9 cells
T2 sequence (P18825 1-462): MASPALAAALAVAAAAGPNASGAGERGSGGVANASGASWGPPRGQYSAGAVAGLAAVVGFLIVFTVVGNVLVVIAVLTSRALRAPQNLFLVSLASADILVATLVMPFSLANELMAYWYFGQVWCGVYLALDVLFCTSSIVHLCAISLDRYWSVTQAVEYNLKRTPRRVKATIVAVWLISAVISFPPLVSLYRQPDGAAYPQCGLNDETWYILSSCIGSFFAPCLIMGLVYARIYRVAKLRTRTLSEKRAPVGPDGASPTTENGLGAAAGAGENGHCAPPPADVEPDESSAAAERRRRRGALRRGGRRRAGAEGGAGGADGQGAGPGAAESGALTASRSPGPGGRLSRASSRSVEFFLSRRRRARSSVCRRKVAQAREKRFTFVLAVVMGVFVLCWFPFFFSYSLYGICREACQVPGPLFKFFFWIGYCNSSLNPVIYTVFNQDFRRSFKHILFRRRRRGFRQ
The experiment can be described thus: Adrenergic α2C radioligand binding ([3H]MK-912). As to conditions: compound at 0.1 μM; read-out: Percentage inhibition of ligand binding, Adrenergic (0.1 μM) a2C. How it is done:
To evaluate in radioligand binding assays the activity of compounds of the invention, human recombinant adrenergic α2C receptor expressed in insect Sf9 cells (Uhlen, S. et al, J. Pharmacol. Exp. Ther. 271:1558, 1994) in a modified Tris-HCl buffer (50 mM Tris-HCl, pH 7.4, 12.5 mM MgCl2, 2 mM EDTA) was used. Compounds of the invention were incubated with 1 nM [^3H]MK-912 for 60 min at 25° C. Non-specific binding was estimated in the presence of 10 μM WB-4101. Receptor proteins were filtered and washed, the filters were then counted to determine [^3H]MK-912 specifically bound. Compounds were screened at 1 μM or lower, using 1% DMSO as vehicle. Biochemical assay results are presented as the percent inhibition of specific binding in Table 3.

The structures appear in SMILES notation.

human recombinant histamine H1 receptor, sequence (P35367 whole entry): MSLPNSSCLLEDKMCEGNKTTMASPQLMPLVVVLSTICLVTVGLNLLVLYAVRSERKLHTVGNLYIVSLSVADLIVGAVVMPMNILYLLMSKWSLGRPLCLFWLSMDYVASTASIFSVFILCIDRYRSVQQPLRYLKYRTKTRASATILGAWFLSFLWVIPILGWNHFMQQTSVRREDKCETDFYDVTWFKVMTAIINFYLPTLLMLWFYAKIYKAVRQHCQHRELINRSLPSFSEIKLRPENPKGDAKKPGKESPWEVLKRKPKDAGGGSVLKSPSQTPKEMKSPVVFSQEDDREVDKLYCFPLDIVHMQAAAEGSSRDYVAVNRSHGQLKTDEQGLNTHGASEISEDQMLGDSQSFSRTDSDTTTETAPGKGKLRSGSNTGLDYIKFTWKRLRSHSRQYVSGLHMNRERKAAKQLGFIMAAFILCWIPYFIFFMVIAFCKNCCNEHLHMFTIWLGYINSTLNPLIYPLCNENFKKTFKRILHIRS

Consider `C#CCC1(C)CN(C)Cc2c1n(C)c1ccc(C)cc21` (stereo not drawn) [Compound 47, 2,4,5,8-tetramethyl-4-(prop-2-ynyl)-2,3,4,5-tetrahydro-1H-pyrido[4,3-b]indole], for which the figures for the inhibition at 0.1 µM in experiment [1], in experiment [2] and in experiment [3] were 49%, 10% and 8%, respectively.

For the molecule `Cc1ccc2c(c1)c1c(n2C)C(C)(CCc2nc(-c3ccccc3)cs2)CN(C)C1` (stereo not drawn) [Compound 48], the inhibition at 0.1 µM in experiment [1] worked out at 89%; in experiment [2], 13%; in experiment [3], 15%.

What is called inhibition is the change of the read-out against control, counted positive when it falls.
